Measured values: PubChem BioAssay (NCI)
Where “and” joins values, the source holds several entries; their conditions need not be identical. Equal entries are not always repeated.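 Values below derive from 48-hour exposures of cells grown in 96-well plates, with endpoints linearly interpolated between the two concentrations bracketing the appropriate inhibition level. GI50 = concentration required for 50% inhibition of growth. TGI marks complete inhibition of growth.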

Legend:
Assay in all cases: NCI-60 cell line screen, 48 h
[1] = tested on: HOP-62 NSCLC
[2] = tested on: TK-10 renal
[3] = tested on: MDA-N
[4] = tested on: CCRF-CEM leukemia
[5] = tested on: CAKI-1 renal
[6] = tested on: M14 melanoma
[7] = tested on: HT29 colon
[8] = tested on: LOX IMVI melanoma
[9] = tested on: NCI-H226 lung
[10] = tested on: UACC-62 melanoma
[11] = tested on: KM12 colon

Row | SMILES | TGI [1] | TGI [2] | TGI [3] | TGI [4] | TGI [5] | TGI [6] | TGI [7] | TGI [8] | TGI [9] | TGI [10] | TGI [11] | GI50 [4] | GI50 [7] | GI50 [8] | GI50 [9] | GI50 [10]
1 | N=C(N)n1[nH]c2c(c1=O)CCC2 | > 100 µM | > 100 µM | > 100 µM | > 100 µM | > 100 µM | > 100 µM | > 100 µM | > 100 µM | > 100 µM | > 100 µM | – | – | – | – | – | –
2 | COc1ccc(N2CCN(c3ccc4c(c3)NCC(=O)N4)CC2)cc1 | > 100 µM | > 100 µM | > 100 µM | > 100 µM | > 100 µM | > 100 µM | > 100 µM | > 100 µM | > 100 µM | 56.5 µM | 49 µM | – | – | – | – | –
3 | COC(=O)C1(NC(=O)C(N)CC(=O)O)C(C)C1C (stereo not given) | > 100 µM | > 100 µM | > 100 µM | > 100 µM | > 100 µM | > 100 µM | > 100 µM | > 100 µM | > 100 µM | > 100 µM | > 100 µM | – | – | – | – | –
4 | O=c1c2c([nH]c3cc4c(cc13)OCO4)-c1ccccc1CCC2 | > 50 µM | > 50 µM | > 50 µM | > 50 µM | > 50 µM | > 50 µM | > 50 µM | > 50 µM | > 50 µM | > 50 µM | > 50 µM | – | – | – | – | –
5 | Cc1ccccc1NC(=S)N/N=C(/c1ccccc1)c1ccccn1 | 11.5 µM | 5.24 µM | 14.1 µM | 11.6 µM | 10.5 µM | 1.91 µM | 15.8 µM | 20.4 µM | 1.66 µM | 17.1 µM | 14 µM | – | – | – | – | –
6 | Cc1ccc(S(=O)(=Nc2ccccc2)C(C(C)C)C(C)(C)Cl)cc1 (stereo not given) | > 50 µM | > 50 µM | > 50 µM | > 50 µM | > 50 µM | > 50 µM | > 50 µM | > 50 µM | 45.9 µM | > 50 µM | > 50 µM | – | – | – | – | –
7 | O=C(/C=C/c1cccs1)c1ccsc1 | > 100 µM | 97.6 µM | 36.3 µM | 45.5 µM | > 100 µM | > 100 µM | 41.7 µM | 35.1 µM | 48.5 µM | 38.5 µM | > 10 µM | – | – | – | – | –
8 | Sc1nnc(-c2ccccc2Nc2ccccc2-c2nnc(S)n2-c2ccccc2)n1-c1ccccc1 | > 100 µM | > 100 µM | 85.3 µM | > 100 µM | > 100 µM | > 100 µM | > 100 µM | > 100 µM | > 100 µM | > 100 µM | > 100 µM | – | – | – | – | –
9 | CCN(CC)C(=S)SNCCc1ccc(S(N)(=O)=O)cc1 | 26.3 µM | 42.5 µM | 40.6 µM | 36.8 µM | 29 µM | 23.1 µM | 27.1 µM | 33 µM | > 84.7 µM | > 94.1 µM | 37.6 µM | – | – | – | – | –
10 | Cc1cc(=O)c2c(O)c3c(O)cc(O)c4c5c(O)cc(O)c6c(O)c7c(=O)cc(C)c8c1c2c(c34)c(c65)c78 | > 73 µM | > 100 µM | > 100 µM | > 100 µM | > 100 µM | > 100 µM | > 100 µM and 43.2 µM | > 100 µM | > 100 µM and 44.3 µM | > 100 µM | > 100 µM | > 100 µM and 22.2 µM | > 100 µM and 19.2 µM | > 100 µM and 35.4 µM | > 100 µM and 16.3 µM | > 100 µM
11 | CC(=O)Oc1ccc(OC(Oc2ccccc2)c2ccccc2)cc1 (stereo not given) | > 100 µM | > 100 µM | 42.2 µM | 72.2 µM | 55.7 µM | 32.1 µM | 87 µM | 52.6 µM | 69.7 µM | 44.6 µM | 58.7 µM | – | – | – | – | –
12 | Cc1ccccc1NC(=S)N=Nc1c(O)[nH]c2ccccc12 | > 100 µM | > 100 µM | > 100 µM | > 100 µM | > 100 µM | > 100 µM | > 100 µM | > 100 µM | > 100 µM | > 100 µM | > 100 µM | – | – | – | – | –
13 | N=C1N=C(N)c2cc3c(cc21)SCCSCCCSCCS3 | 30.7 µM | 28.6 µM | 33.8 µM | > 25.9 µM | > 63.4 µM | 35.7 µM | > 48.6 µM | 17.6 µM | > 73.2 µM | > 54.7 µM | 26.7 µM | – | – | – | – | –
14 | CC1(C)Oc2ccc(Cl)cc2C12CC2 | 37.7 µM | 40.7 µM | 35.9 µM | > 100 µM | 31.2 µM | 35.5 µM | 34.7 µM | 30.9 µM | 32.2 µM | > 100 µM | 53.1 µM | – | – | – | – | –
15 | C=CCC1NCCC2=C1C(S(=O)(=O)c1ccc(C)cc1)c1ccccc12 (stereo not given) | 28.2 µM | 32.7 µM | 20.2 µM | 28.6 µM | 19.6 µM | 26.8 µM | 29.4 µM | 23.1 µM | 35.9 µM | 24.6 µM | 22.6 µM | – | – | – | – | –
16 | CC(=O)O[C@H]1CC[C@@]2(C)C(=CC[C@@H]3[C@@H]2CC[C@]2(C)c4nc(N)c(C#N)cc4C[C@@H]32)C1 | 46.5 µM | > 100 µM | > 100 µM | > 89.5 µM | > 100 µM | > 100 µM | > 62.2 µM | > 100 µM | > 100 µM | > 100 µM | > 100 µM | – | – | – | – | –

Row | SMILES | TGI [1] | TGI [2] | TGI [3] | TGI [4] | TGI [5] | TGI [6] | TGI [7] | TGI [8] | TGI [9] | TGI [10] | TGI [11] | GI50 [4] | GI50 [7] | GI50 [8] | GI50 [9] | GI50 [10]
17 | O=c1[nH]c(=O)n(C2CC(O)C(CO)O2)cc1NN=NCc1ccccc1 (stereo not given) | > 100 µM | > 100 µM | > 100 µM | > 100 µM | > 100 µM | > 100 µM | > 100 µM | > 100 µM | > 100 µM | > 100 µM | > 100 µM | – | – | – | – | –
18 | O=C(CCc1cc(O)cc(O)c1)NCCc1ccc(O)c(O)c1 | > 100 µM | > 100 µM | > 100 µM | 56.1 µM | > 100 µM | > 100 µM | > 100 µM | > 100 µM | > 100 µM | > 100 µM | > 100 µM | – | – | – | – | –
19 | O=C(c1ccc(Cl)cc1)N(Cc1cccnc1)C(=S)N(Cc1cccnc1)C(=O)c1ccc(Cl)cc1 | > 100 µM | > 100 µM | 56.6 µM | > 100 µM | > 100 µM | 59.7 µM | 76.9 µM | 47.4 µM | > 100 µM | > 100 µM | > 100 µM | – | – | – | – | –
20 | COCC(=O)[C@]1(O)Cc2c(O)c3c(c(O)c2[C@@H](OC2CC(N)C(O)C(C)O2)C1)C(=O)c1c(OC)cccc1C3=O (stereo not given in full) | 0.847 µM | 13.8 µM | 0.249 µM | 0.4 µM | 0.422 µM | 0.275 µM | 0.735 µM | 0.148 µM | 0.665 µM | 0.255 µM | 0.357 µM | – | – | – | – | –
21 | O=C1CCC2=C(CCC2)N1CCc1ccc2c(c1)OCO2 | > 100 µM | > 100 µM | > 100 µM | > 100 µM | > 100 µM | > 100 µM | > 100 µM | > 100 µM | > 100 µM | > 100 µM | > 100 µM | – | – | – | – | –
22 | CCCCCC(/C=C/[C@@H]1CC(=O)C[C@H]1O[Si](C)(C)C(C)(C)C)OCOCCOC (stereo not given in full) | 31.7 µM | 26.3 µM | 9.44 µM | > 100 µM | 7.87 µM | 19.5 µM | 10.1 µM | 7 µM | 18.8 µM | 7.64 µM | 8.96 µM | – | – | – | – | –
23 | c1ccc([C@H]2CN3CCSC3=N2)cc1 | > 100 µM | – | > 100 µM | > 100 µM | > 100 µM | > 100 µM | > 100 µM | > 100 µM | > 100 µM | > 100 µM | > 100 µM | – | – | – | – | –
24 | CC(O)(c1ccccc1)c1nccc2ccccc12 (stereo not given) | > 100 µM | > 100 µM | 53.7 µM | > 100 µM | > 100 µM | > 100 µM | > 100 µM | > 100 µM | > 100 µM | > 100 µM | > 100 µM | – | – | – | – | –
25 | CCOC(=O)N(CC)c1c(C(F)(F)F)cc(-c2ccccc2)[nH]c1=O | > 100 µM | > 100 µM | 53.9 µM | 63.8 µM | > 100 µM | > 100 µM | > 100 µM | > 100 µM | > 100 µM | > 100 µM | > 100 µM | – | – | – | – | –
26 | O=C(Nc1ccc2ccccc2c1)Nn1cnnc1 | > 100 µM | > 100 µM | > 100 µM | > 100 µM | > 100 µM | > 100 µM | > 100 µM | > 100 µM | > 100 µM | > 100 µM | > 100 µM | – | – | – | – | –
27 | COc1ccc2[nH]c(C(=O)N3CC(CCl)c4ccc([N+](=O)[O-])cc43)cc2c1 (stereo not given) | > 100 µM | > 100 µM | > 100 µM | > 100 µM | > 100 µM | > 100 µM | > 100 µM | > 100 µM | > 100 µM | > 100 µM | > 100 µM | – | – | – | – | –
28 | COc1cc2c3c(cc(Cl)nc3c1OC)C(O)(CC(C)=O)C(=O)N2 (stereo not given) | > 59.8 µM | 37.3 µM | 31.1 µM | > 45.4 µM | 37.7 µM | 36.5 µM | > 61.9 µM | 34.8 µM | > 57.3 µM | 31.5 µM | > 61.6 µM | – | – | – | – | –
29 | Cc1cc(S(=O)(=O)O)ccc1N=Nc1ccc(N=Nc2c(O)ccc3ccccc23)c(C)c1 | > 100 µM | > 100 µM | > 100 µM | 60.8 µM | > 100 µM | > 100 µM | > 100 µM | > 100 µM | > 100 µM | > 100 µM | 83.3 µM | – | – | – | – | –
30 | C[C@H](CC[C@@H](O)C(C)(C)O)[C@H]1CC[C@@]2(C)[C@@H]3CC=C4[C@@H](CC[C@H](OC5OC(CO)C(O)C(O)C5O)C4(C)C)[C@]3(C)C(=O)C[C@]12C (stereo not given in full) | > 100 µM | > 100 µM | > 100 µM | 70.9 µM | > 100 µM | 92.1 µM | > 100 µM | > 100 µM | > 100 µM | > 100 µM | > 100 µM | – | – | – | – | –
31 | CN(N)C(=O)NCCCl | > 100 µM | > 100 µM | > 100 µM | > 100 µM | > 100 µM | > 100 µM | > 100 µM | > 100 µM | 6.42 µM | > 100 µM | > 100 µM | – | – | – | – | –
32 | [N-]=[N+]=C1CNC(=O)NC1=O | > 100 µM | > 100 µM | > 100 µM | > 100 µM | > 100 µM | > 100 µM | > 100 µM | > 100 µM | > 100 µM | > 100 µM | > 100 µM | – | – | – | – | –
